From patent US12060330B2, “Therapeutic indazoles” (priority 2017, dated 2024)
Converted amounts (≈) assume the structure as drawn.

What was measured:
M. tuberculosis [1] = details: cited from earlier work
M. tuberculosis [2] = experiment: Lung CFU in infected mice (FIG. 10, PMID: 25421483); format: in vivo; details: compared to INH and vehicle only
M. tuberculosis [3] = experiment: Killing studies using CFU measurements; format: cell-based
M. tuberculosis H37Rv = experiment: RNAseq transcriptional profiling; format: cell-based; details: single drug, 10× MIC, 4 h
M. tuberculosis [4] = experiment: microbe, parasite or virus in culture; format: cell-based; details: for whole-cell activity (in words): SAR relative to DG167; for increase in potency over DG167: relative to DG167
M. smegmatis = experiment: MIC against nontuberculous mycobacteria
CYP2C19 = CYP2C19 (Homo sapiens, UniProt P33261); experiment: Cytochrome P450 (CYP) inhibition; format: in vitro ADME
Sequence of CYP2C19 (P33261 whole entry, species assumed): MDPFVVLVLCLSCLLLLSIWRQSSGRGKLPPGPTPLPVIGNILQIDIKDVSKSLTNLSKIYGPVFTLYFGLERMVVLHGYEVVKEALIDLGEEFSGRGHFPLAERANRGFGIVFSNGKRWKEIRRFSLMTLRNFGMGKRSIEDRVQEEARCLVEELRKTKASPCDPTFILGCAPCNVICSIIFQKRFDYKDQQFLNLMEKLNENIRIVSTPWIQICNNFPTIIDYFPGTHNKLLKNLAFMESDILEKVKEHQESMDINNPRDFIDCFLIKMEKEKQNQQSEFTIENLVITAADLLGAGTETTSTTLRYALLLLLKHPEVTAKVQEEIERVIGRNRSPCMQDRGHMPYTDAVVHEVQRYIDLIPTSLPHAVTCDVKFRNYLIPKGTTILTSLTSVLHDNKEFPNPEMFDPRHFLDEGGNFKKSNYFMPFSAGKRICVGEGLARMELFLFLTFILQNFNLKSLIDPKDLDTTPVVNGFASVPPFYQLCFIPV

M. avium = experiment: MIC against nontuberculous mycobacteria
[5] = Mouse pharmacokinetic studies (plasma, LC-MS/MS); format: in vivo; details: mice
Procedure: DG1167 levels in plasma were measured by LC-MS/MS in electrospray positive-ionization mode (ESI+) on a Sciex Qtrap 4000 triple-quadrupole mass combined with an Agilent 1260 HPLC using Analyst software. […] Multiple-reaction monitoring (MRM) of parent/daughter transitions in electrospray positive-ionization mode (ESI+) was used to quantify DG167. […] Extracts were vortexed for 5 minutes and centrifuged at 4000 RPM for 5 minutes. The supernatants were analyzed by LC-MS. Verapamil IS was sourced from Sigma-Aldrich.

M. fortuitum = experiment: MIC against nontuberculous mycobacteria
M. abscessus = experiment: MIC against nontuberculous mycobacteria
[6] = tested on: mycolic acid biosynthesis; format: cell-based, M. tuberculosis
Caco-2 permeability = details: human
Kinetic solubility = details: pH 7.4 phosphate-buffered saline (PBS)
[7] = Dose escalation and drug tolerability in mice; format: in vivo
Procedure: All animal experiments were conducted in compliance with and approved by the Institutional Animal Care and Use Committee of the New Jersey Medical School, Rutgers University.
The mice were weighed and observed daily. Their behavior, drinking and feeding patterns, and feces were monitored and recorded. Upon necropsy, liver, gall bladder, kidney and spleen pathology were observed as well.

M. marinum = experiment: MIC against nontuberculous mycobacteria
[8] = Mouse liver microsome (MLM) stability
KasA = KasA (Mycobacterium tuberculosis, UniProt P9WQD9); experiment: Microscale thermophoresis (MST) binding assay; parameters: species or system M. tuberculosis; details: for EC50: read-out: EC50 (KasA interaction)
Sequence of KasA (P9WQD9 whole entry): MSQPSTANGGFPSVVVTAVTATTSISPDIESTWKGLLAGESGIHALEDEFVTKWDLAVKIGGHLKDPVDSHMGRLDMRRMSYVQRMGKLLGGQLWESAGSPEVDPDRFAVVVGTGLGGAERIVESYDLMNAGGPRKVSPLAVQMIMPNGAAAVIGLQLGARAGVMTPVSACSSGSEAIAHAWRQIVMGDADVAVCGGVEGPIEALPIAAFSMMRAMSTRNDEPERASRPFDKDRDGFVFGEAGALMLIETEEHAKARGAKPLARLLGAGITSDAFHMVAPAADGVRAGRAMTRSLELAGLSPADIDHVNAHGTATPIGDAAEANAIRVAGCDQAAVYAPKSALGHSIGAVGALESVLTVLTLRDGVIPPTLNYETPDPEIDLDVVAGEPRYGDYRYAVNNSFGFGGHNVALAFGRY

CYP enzymes = experiment: Cytochrome P450 (CYP) inhibition; details: CYP enzymes except CYP2C19

SMILES: C=C/C(C)=C/[C@@]1(C)SC(=O)C(C)=C1O [thiolactomycin]
- whole-cell activity in M. tuberculosis (M. tuberculosis [1]): 142 µM

SMILES: Cc1n[nH]c2ccc(NS(=O)(=O)CCCCF)cc12 [Example 43, 4-Fluoro-N-(3-methyl-1H-indazol-5-yl)butane-1-sulfonamide]
- M. tuberculosis colony-forming units in the lungs (M. tuberculosis [2]): reduction of M. tuberculosis colony-forming units in the lungs

SMILES: NNC(=O)c1ccncc1 [INH, isoniazid, reference compound]
- killing pattern (in words) (M. tuberculosis [3]; 10× MIC of each drug): rapid reduction of viable CFU followed by rapid re-growth
- gene expression change (in words) (M. tuberculosis H37Rv): strongly induced expression of kasA, kasB, acpM genes, the iniBAC operon

SMILES: CCCCCS(=O)(=O)Nc1ccc2cnn(C)c2c1 [Example 11, N-(1-methyl-1H-indazol-6-yl)pentane-1-sulfonamide]
- whole-cell activity (in words) (M. tuberculosis [4]): increased the activity over the parent by twofold
- increase in potency over DG167 (M. tuberculosis [4]): 2 fold

SMILES: CC12C[C@@]34C=CC(=O)[C@@](C)(CCC(=O)Nc5c(O)ccc(C(=O)O)c5O)C3[C@H](CC1C4)O2 (stereo partly drawn) [platensimycin]
- whole-cell activity in M. tuberculosis (M. tuberculosis [1]): 27 µM

SMILES: CCCCS(=O)(=O)Nc1ccc2cnn(C)c2c1 [DG167, N-(1-methyl-1H-indazol-6-yl)butane-1-sulfonamide]
- MIC (M. smegmatis): > 100 µM
- IC50 (CYP2C19): 12000 nM
- MIC (M. avium): > 100 µM
- half-life (t1/2) ([5]; IV 5 mg/kg): 19.8 min
- AUC [0-t] ([5]; IV 5 mg/kg, 5% DMA/40% PEG300/55% D5W): 1751.25 ng·h/mL
- AUC [0-t] ([5]; PO 25 mg/kg, 0.5% CMC/0.5% Tween 80, plasma): 8083.96 ng·h/mL
- time plasma levels maintained above the MIC ([5]; single oral dose 25 mg/kg): over 4 hours
- AUC [0-t] ([5]; single oral dose 25 mg/kg, plasma): 8083.96 h*ng/m
- MIC (M. fortuitum): > 100 µM
- MIC (M. abscessus): > 100 µM
- accumulation of FAS-I products [6]: caused accumulation of C16-C26 short-chain fatty-acids
- Papp A→B (Caco-2 permeability): 71.8 ×10⁻⁶ cm/s
- Papp B→A (Caco-2 permeability): 45.6 ×10⁻⁶ cm/s
- kinetic solubility (Kinetic solubility): 324 µM (≈ 86.6 µg/mL)
- reduction of viable colony-forming units (CFU) (M. tuberculosis [3]; 10× or 20× MIC, over seven days): 2 log 10
- tolerability, dose escalation ([7]; 50 and 100 mg/kg, monitored 8 hours): well tolerated
- dose tolerability for 5 d ([7]; 5 d, DG167 50 or 100 mg/kg, or DG167 100 mg/kg with INH 25 mg/kg): did not show any behavioral changes or weight loss
- tolerability, dose escalation ([7]; higher doses (250, 500 mg/kg)): heavy breathing, hunched posture and decreased activity
- MIC (M. marinum): > 100 µM
- MLM t1/2 ([8]; in the absence of NADPH): > 300 min
- MLM t1/2 ([8]; mouse liver microsomes): 10.1 min
- EC50 (KasA): 131 ± 18.2 nM
- CYP inhibition (in words) (CYP enzymes): did not significantly inhibit
- gene expression change (in words) (M. tuberculosis H37Rv): strongly induced expression of kasA, kasB, acpM genes, the iniBAC operon

SMILES: [2H]C([2H])([2H])n1ncc2ccc(NS(=O)(=O)CCCC)cc21 [Example 29, N-(1-(methyl-d3)-1H-indazol-6-yl)butane-1-sulfonamide]
- MLM t1/2 ([8]; mouse liver microsomes): 16.8 min

SMILES: CCCCNC(=S)Nc1ccc2cnn(C)c2c1 [Example 33, 1-Butyl-3-(1-methyl-1H-indazol-6-yl)thiourea]
- MIC (M. tuberculosis [4]; Mycobacterium tuberculosis, whole-cell): 3.1 µM (≈ 0.813 µg/mL)
- whole-cell activity (in words) (M. tuberculosis [4]): loss of activity

SMILES: CCCCS(=O)(=O)Nc1ccc2cn[nH]c2c1 [Example 1, N-(1H-indazol-6-yl)butane-1-sulfonamide]
- inhibition of mycolic acid biosynthesis [6]: did not show any inhibition
- EC50 (KasA): 1740 ± 221 nM

SMILES: CCCCCCS(=O)(=O)Nc1ccc2cnn(C)c2c1 [Example 12, N-(1-methyl-1H-Indazol-6-yl)hexane-1-sulfonamide]
- whole-cell activity (in words) (M. tuberculosis [4]): inactive

SMILES: CCCCS(=O)(=O)Nc1ccc2[nH]nc(C)c2c1 [Example 41, N-(3-methyl-1H-indazol-5-yl)butane-1-sulfonamide]
- improvement over DG167 in MIC / whole-cell activity (M. tuberculosis [4]): 2 ×
- Kd (KasA): 46.5 ± 18.7 nM

SMILES: CCCCS(=O)(=O)N(C)c1ccc2cnn(C)c2c1 [Example 32, N-methyl-N-(1-methyl-1H-indazol-6-yl)butane-1-sulfonamide]
- whole-cell activity (in words) (M. tuberculosis [4]): loss of activity

SMILES: [2H]C([2H])([2H])n1ncc2ccc(NS(=O)(=O)CCCCC)cc21 [Example 30, N-(1-(methyl-d3)-1H-indazol-6-yl)pentane-1-sulfonamide]
- whole-cell activity (in words) (M. tuberculosis [4]): increased the activity over the parent by twofold
- increase in potency over DG167 (M. tuberculosis [4]): 2 fold
